Laboratory results reported in US8802673B2, “Heterocyclic amine derivatives” (Hoffmann-La Roche Inc, priority 2011, dated 2014).

Key:
rat TAAR1 = rat TAAR1 (Rattus norvegicus (Rat), UniProt Q923Y9); assay: Radioligand binding assay on rat TAAR1; details: rat TAAR1 (second value of the cell), HEK-293 membranes; read-out: Ki (μM) mouse/rat
Method: (§1) Construction of TAAR Expression Plasmids and Stably Transfected Cell Lines
(§2) For the construction of expression plasmids the coding sequences of human, rat and mouse TAAR 1 were amplified from genomic DNA essentially as described by Lindemann et al.. The Expand High Fidelity PCR System (Roche Diagnostics) was used with 1.5 mM Mg^2+ and purified PCR products were cloned into pCR2.1-TOPO cloning vector (Invitrogen) following the instructions of the manufacturer. PCR products were subcloned into the pIRESneo2 vector (BD Clontech, Palo Alto, Calif.), and expression vectors were sequence verified before introduction in cell lines.
(§3) HEK293 cells (ATCC #CRL-1573) were cultured essentially as described by Lindemann et al. (2005). For the generation of stably transfected cell lines HEK293 cells were transfected with the pIRESneo2 expression plasmids containing the TAAR coding sequences (described above) with Lipofectamine 2000 (Invitrogen) according to the instructions of the manufacturer, and 24 hrs post transfection the culture medium was supplemented with 1 mg/ml G418 (Sigma, Buchs, Switzerland). After a culture period of about 10 d clones were isolated, expanded and tested for responsiveness to trace amines (all compounds purchased from Sigma) with the cAMP Biotrak Enzyme immunoassay (EIA) System (Amersham) following the non-acetylation EIA procedure provided by the manufacturer.
Radioligand Binding Assay on Rat TAAR1
Membrane Preparation and Radioligand Binding
(§4) HEK-293 cells stably expressing rat TAAR1 were maintained at 37° C. and 5% CO2 in DMEM high glucose medium, containing fetal calf serum (10%, heat inactivated for 30 min at 56° C.), penicillin/streptomycin (1%), and 375 μg/ml geneticin (Gibco). Cells were released from culture flasks using trypsin/EDTA, harvested, washed twice with ice-cold PBS (without Ca^2+ and Mg^2+), pelleted at 1,000 rpm for 5 min at 4° C., frozen and stored at −80° C. Frozen pellets were suspended in 20 ml HEPES-NaOH (20 mM, pH 7.4) containing 10 mM EDTA and homogenized with a Polytron (PT 6000, Kinematica) at 14,000 rpm for 20 s. The homogenate was centrifuged at 48,000×g for 30 min at 4° C. Subsequently, the supernatant was removed and discarded, and the pellet resuspended in 20 ml HEPES-NaOH (20 mM, pH 7.4) containing 0.1 mM EDTA using the Polytron (20 s at 14,000 rpm). This procedure was repeated and the final pellet resuspended in HEPES-NaOH containing 0.1 mM EDTA and homogenized using the Polytron. Typically, aliquots of 2 ml membrane portions were stored at −80° C. With each new membrane batch the dissociation constant (Kd) was determined via a saturation curve. […] All compounds were tested at a broad range of concentrations (10 pM to 10 μM) in duplicates. […] The 96 deep well plates were incubated for 1 hr at 4° C. Incubations were terminated by rapid filtration through Unifilter-96 plates (Packard Instrument Company) and glass filters GF/C (Perkin Elmer) presoaked for 1 hr in polyethylenimine (0.3%) and washed 3 times with 1 ml of cold binding buffer. After addition of 45 μl of Microscint 40 (PerkinElmer) the Unifilter-96 plate was sealed and after 1 hr the ratioactivity counted using a TopCount Microplate Scintillation Counter (Packard Instrument Company).

mouse TAAR1 = mouse TAAR1 (Mus musculus (Mouse), UniProt Q923Y8); assay: Radioligand binding assay on mouse TAAR1; details: mouse TAAR1 (first value of the cell), HEK-293 membranes; read-out: Ki (μM) mouse/rat
mouse TAAR1, sequence (Q923Y8 whole entry): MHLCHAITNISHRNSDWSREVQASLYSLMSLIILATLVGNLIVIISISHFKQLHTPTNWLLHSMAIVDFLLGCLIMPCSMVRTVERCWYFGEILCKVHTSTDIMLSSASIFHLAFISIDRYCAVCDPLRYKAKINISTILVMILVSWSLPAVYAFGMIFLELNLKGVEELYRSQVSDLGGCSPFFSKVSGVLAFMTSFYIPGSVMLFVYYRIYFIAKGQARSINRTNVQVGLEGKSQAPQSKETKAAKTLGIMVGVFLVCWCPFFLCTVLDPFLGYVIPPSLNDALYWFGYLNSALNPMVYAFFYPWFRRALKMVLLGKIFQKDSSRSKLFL
Method: as §1, §2, §3
Radioligand Binding Assay on Mouse TAAR1
Membrane Preparation and Radioligand Binding.
as §4, with “expressing mouse” for “expressing rat”

rat TAAR1, sequence (Q923Y9 whole entry): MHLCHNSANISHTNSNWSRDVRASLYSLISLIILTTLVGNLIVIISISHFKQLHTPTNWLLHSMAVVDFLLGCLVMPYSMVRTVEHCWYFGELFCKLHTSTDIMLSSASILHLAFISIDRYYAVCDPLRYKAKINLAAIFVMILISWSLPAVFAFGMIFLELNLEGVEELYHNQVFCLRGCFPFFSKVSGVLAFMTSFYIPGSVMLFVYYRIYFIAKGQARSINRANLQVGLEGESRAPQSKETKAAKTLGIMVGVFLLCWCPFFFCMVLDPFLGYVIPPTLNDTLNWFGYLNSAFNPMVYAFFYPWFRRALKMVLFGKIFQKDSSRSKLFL

| Ki (rat TAAR1) [µM] | Ki (mouse TAAR1) [µM] | Structure (SMILES) |
| --- | --- | --- |
| 0.057 | 0.0015 | Cc1cc(Nc2ccc(C3CNCCO3)cc2C)ncc1Cl (racemic) [Example 84, (RS)-5-Chloro-4-methyl-N-(2-methyl-4-(morpholin-2-yl)phenyl)pyridin-2-amine] |
| 0.235 | 0.0079 | c1ccc(-c2nnc(Nc3ccc([C@H]4CNCCO4)cc3)o2)cc1 [Example 115, (S)—N-(4-(Morpholin-2-yl)phenyl)-5-phenyl-1,3,4-oxadiazol-2-amine] |
| 0.863 | 0.0096 | FC(F)(F)c1ncc(Nc2ccc([C@@H]3CNCCO3)cc2)cn1 [Example 154, ((R)-4-Morpholin-2-yl-phenyl)-(2-trifluoromethyl-pyrimidin-5-yl)-amine] |
| 1.24 | 0.0357 | Clc1ccc(CNc2ccc([C@H]3CNCCO3)cc2)cn1 [Example 32, (S)—N-((6-Chloropyridin-3-yl)methyl)-4-(morpholin-2-yl)aniline] |
| 0.0194 | 0.0014 | Cc1cc(Nc2ccc(C3CNCCO3)cc2C)ncc1Br (racemic) [Example 85, (RS)-5-Bromo-4-methyl-N-(2-methyl-4-(morpholin-2-yl)phenyl)pyridin-2-amine] |
| 0.188 | 0.0096 | Fc1cc(Cl)ccc1CNc1ccc([C@H]2CNCCO2)cc1 [Example 35, (4-Chloro-2-fluoro-benzyl)-((S)-4-morpholin-2-yl-phenyl)-amine] |
| 0.203 | 0.0162 | Cc1cc(C2CNCCO2)ccc1Nc1ncc(Cl)cn1 (racemic) [Example 81, (RS)-(5-Chloro-pyrimidin-2-yl)-(2-methyl-4-morpholin-2-yl-phenyl)-amine] |
| 0.149 | 0.0134 | FC(F)Cn1ccc(Nc2ccc(C3CNCCO3)cc2)n1 (racemic) [Example 150, (RS)-[1-(2,2-Difluoro-ethyl)-1H-pyrazol-3-yl]-(4-morpholin-2-yl-phenyl)-amine] |
| 0.104 | 0.0266 | FC(F)(F)c1cc(Nc2ccc([C@H]3CNCCO3)cc2)c2cccc(C(F)(F)F)c2n1 [Example 49, (S)—N-(4-(Morpholin-2-yl)phenyl)-2,8-bis(trifluoromethyl)quinolin-4-amine] |
| 0.0814 | 0.0086 | CCc1cnc(Nc2ccc([C@@H]3CNCCO3)cc2C)nc1 [Example 106, (5-Ethyl-pyrimidin-2-yl)-((R)-2-methyl-4-morpholin-2-yl-phenyl)-amine] |
| 0.0866 | 0.0023 | Fc1cc(Br)cnc1Nc1ccc([C@H]2CNCCO2)cc1 [Example 57, (S)-5-Bromo-3-fluoro-N-(4-(morpholin-2-yl)phenyl)pyridin-2-amine] |
| 0.0045 | 0.0012 | Brc1cccc2nc(Nc3ccc([C@H]4CNCCO4)cc3)ccc12 [Example 53, (S)-5-Bromo-N-(4-(morpholin-2-yl)phenyl)quinolin-2-amine] |
| 0.033 | 0.0058 | COc1cc(Cl)nc(Nc2ccc([C@@H]3CNCCO3)cc2)n1 [Example 180, (4-Chloro-6-methoxy-pyrimidin-2-yl)-((R)-4-morpholin-2-yl-phenyl)-amine] |
| 0.007 | 0.0039 | CCc1cnc(Nc2ccc([C@@H]3CNCCO3)cc2F)nc1 [Example 116, (5-Ethyl-pyrimidin-2-yl)-((R)-2-fluoro-4-morpholin-2-yl-phenyl)-amine] |
| 0.808 | 0.0438 | Brc1ccc(CNc2ccc([C@H]3CNCCO3)cc2)nc1 [Example 27, (5-Bromo-pyridin-2-ylmethyl)-((S)-4-morpholin-2-yl-phenyl)-amine] |
| 0.0065 | 0.0077 | FC(F)(F)c1cnc(Nc2ccc([C@@H]3CNCCO3)cc2Cl)nc1 [Example 168, ((R)-2-Chloro-4-morpholin-2-yl-phenyl)-(5-trifluoromethyl-pyrimidin-2-yl)-amine] |
| 0.0066 | 0.006 | FC(F)Oc1cnc(Oc2cnc(Nc3ccc([C@@H]4CNCCO4)cc3Cl)nc2)nc1 [Example 175, (R)—N-(2-Chloro-4-(morpholin-2-yl)phenyl)-5-(5-(difluoromethoxy)pyrimidin-2-yloxy)pyrimidin-2-amine] |
| 0.197 | 0.0038 | CCc1cnc(Nc2ccc([C@@H]3CCCNC3)cc2)nc1 [Example 112, (5-Ethyl-pyrimidin-2-yl)-((S)-4-piperidin-3-yl-phenyl)-amine] |
| 0.045 | 0.0024 | Cc1cc(C2CNCCO2)ccc1Nc1ccc(Br)cn1 (racemic) [Example 76, (RS)-5-Bromo-N-(2-methyl-4-(morpholin-2-yl)phenyl)pyridin-2-amine] |
| 0.0628 | 0.0088 | FC(F)Oc1cnc(Oc2cnc(Nc3ccc([C@@H]4CNCCO4)cc3)nc2)nc1 [Example 174, (R)-5-(5-(Difluoromethoxy)pyrimidin-2-yloxy)-N-(4-(morpholin-2-yl)phenyl)pyrimidin-2-amine] |
| 0.0199 | 0.0051 | Fc1cc([C@@H]2CNCCO2)ccc1Nc1ncc(Cl)cn1 [Example 130, (5-Chloro-pyrimidin-2-yl)-((R)-2-fluoro-4-morpholin-2-yl-phenyl)-amine] |
| 0.13 | 0.0053 | Fc1cc(Cl)cnc1Nc1ccc([C@H]2CNCCO2)cc1 [Example 77, (S)-5-Chloro-3-fluoro-N-(4-(morpholin-2-yl)phenyl)pyridin-2-amine] |
| 0.468 | 0.0375 | Cc1ccc(CNc2ccc([C@H]3CNCCO3)cc2)cc1 [Example 22, (4-Methyl-benzyl)-((S)-4-morpholin-2-yl-phenyl)-amine] |

| Structure (SMILES) | Ki (rat TAAR1) [µM] | Ki (mouse TAAR1) [µM] |
| --- | --- | --- |
| Fc1cc([C@H]2CNCCO2)ccc1Nc1ncc(OCC(F)(F)F)cn1 [Example 145, ((S)-2-Fluoro-4-morpholin-2-yl-phenyl)-[5-(2,2,2-trifluoro-ethoxy)-pyrimidin-2-yl]-amine] | 0.0067 | 0.0034 |
| COc1cccc(CNc2ccc([C@H]3CNCCO3)cc2)n1 [Example 28, (6-Methoxy-pyridin-2-ylmethyl)-((S)-4-morpholin-2-yl-phenyl)-amine] | 0.561 | 0.276 |
| Clc1cncc(Nc2ccc([C@@H]3CNCCO3)cc2)n1 [Example 206, (R)-6-Chloro-N-(4-(morpholin-2-yl)phenyl)pyrazin-2-amine] | 0.0963 | 0.005 |
| FC(F)(F)c1cc(Nc2ccc([C@@H]3CNCCO3)cc2)ncn1 [Example 198, (R)—N-(4-(Morpholin-2-yl)phenyl)-6-(trifluoromethyl)pyrimidin-4-amine] | 0.163 | 0.0419 |
